Experiments:
Assay type in all cases: in vivo, rat
[1] = tested on: male Sprague-Dawley rats; assay: Paw pressure assay, mechanical hyperalgesia (PWT) in thermal burn pain model; details: rat burn injury 55° C. 24 s, 30 mg/kg PO
Description: (§1) Test Animals: Each experiment used male Sprague-Dawley rats weighing between 190-260 g at the time of thermal burn injury. The rats were housed two per cage, and were allowed to acclimate to their environment for at least six days before testing began. The rats had free access to food and water at all times, except during testing and prior to oral (PO) administration of a test compound, when food was removed about 16 hours before dosing. The rats were divided into treatment groups, and one of the following compounds was administered to each group at the dose and by the route of administration indicated in Tables 5.2A to 5.2C, 5.3A and 5.3B, and 5.4A and 5.4B: ketorolac (Sigma-Aldrich, St. Louis, Mo.), AMG 517 (selective TRPV1 antagonist described in Em. Doherty et al., “Novel vanilloid receptor-1 antagonists:2. Structure-activity relationships of 4-oxopyrimidines leading to the selection of a clinical candidate,” J Med Chem 50:3515-3527 (2007).) (Purdue Pharma L. P., Cranbury, N.J.), indomethacin (Alexis Biochemicals, Farmingdale, N.Y.), gabapentin (Bosche Scientific, New Brunswick, N.J.), or (S)-3-chloro-5-(1,2-dihydroxyethyl)-N-(5-(trifluoromethyl)pyridin-2-yl)-5′,6′-dihydro-[2,4′-bipyridine]-1′(2′H)-carboxamide (Compound 1). The control groups were administered the vehicle for the compound of formula (I). The volume of administration for PO treatment was 5 ml/kg, and was the same for all treatment groups. Volume of administration for intraperitoneal (i.p.) drug administration was 2 ml/kg.
(§2) To assess the actions of a compound of formula (I) for the treatment or prevention of burn pain, a model of thermal burn pain was used. A thermal burn injury was induced under isofluorane/O2 inhalation anesthesia. To assess mechanical hyperalgesia and weight bearing, a thermal injury was produced by immersing the left hind paw into water maintained at 55° C. for 24 seconds. The left hind paw of non-injured control animals was immersed in 22° C. water for 24 seconds. To assess thermal hyperalgesia, a thermal injury was produced by immersing the left hindpaw into water maintained at 50° C. for 48 seconds; the left hind-paw of non-injured control animals was immersed in 22° C. water for 48 seconds. The animals were assessed for response to noxious mechanical stimuli by determining PWT for mechanical hyperalgesia, weight bearing difference between the injured or non-injured side, or response to noxious thermal stimuli by determining PWL for thermal hyperalgesia, all as described below, prior to drug administration (baseline), then again at 1, 3 and 5 hours after induction of burn injury.
The paw pressure assay was used to assess mechanical hyperalgesia. For this assay, hind paw withdrawal thresholds (PWT) to a noxious mechanical stimulus were determined using an analgesimeter (Model 7200, commercially available from Ugo Basile of Italy) as described in C. Stein, “Unilateral Inflammation of the Hindpaw in Rats as a Model of Prolonged Noxious Stimulation: Alterations in Behavior and Nociceptive Thresholds,” Pharmacol. Biochem. and Behavior 31:451-455 (1988). The rat's paw was placed on a small platform, and weight was applied in a graded manner up to a maximum of 250 grams. The endpoint was taken as the weight at which the paw was completely withdrawn. PWT was determined once for each rat at each time point, wherein the affected (ipsilateral; same side as the injury) rear paw was tested. […] All drug treatment groups were compared to the vehicle control group (i.e. injured, administered only the vehicle).

[2] = tested on: male Sprague-Dawley rats; assay: Plantar test, thermal hyperalgesia (PWL) in thermal burn pain model; details: rat burn injury 50° C. 48 s, 30 mg/kg PO
Description: as §1, §2
The plantar test was used to assess thermal hyperalgesia. For this test, hind paw withdrawal latencies (PWL) to a noxious thermal stimulus were determined using a plantar test apparatus (commercially available from Ugo Basile of Italy) following the technique described by K. Hargreaves et al., “A New and Sensitive Method for Measuring Thermal Nociception in Cutaneous Hyperalgesia,” Pain 32(1):77-88 (1988). The maximum exposure time was set at 32 seconds to avoid tissue damage and any directed paw withdrawal from the heat source is taken as the end point. Three latencies were determined at each time point and averaged.

[3] = tested on: male Sprague-Dawley rats; assay: Hind limb weight bearing (incapacitance meter, % WL) in thermal burn pain model; details: rat burn injury 55° C. 24 s, 30 mg/kg PO
Description: as §1, §2
A commercially available incapacitance meter was used to determine the weight distribution on the two hind paws of the animal (Linton Incapacitance Tester (Linton Instrumentation, Norfolk, UK)). The weight bearing difference (WBD) between the injured and non-injured hindpaw was measured. The animal was placed in the testing chamber that allows the animal to stand normally, distributing its body weight on the hind limbs for the test. Each hind paw was positioned on a separate pressure sensitive pad, which independently measures the pressure applied by each limb. The device continuously collects data after either a force threshold has been exceeded, or the investigator depresses the start pad. Rats were allowed to acclimate when placed on the apparatus, and when they were stationary, the force exerted was then continuously monitored for 3 s. The endpoint was the amount of pressure applied to each limb over time. Three readings were taken for each rat at each time point, and the average used for data analysis. WBD was expressed as “% WL”, i.e. the percentage of weight borne on the burn-injured left hind paw, using the following formula: […]
where WLP is the weight on the left hind paw and WRP is the weight on the right (untreated) hind paw. The 50% value of % WL corresponds to an equal weight distribution across both hind paws. […]

[4] = baseline (prior to drug administration)

**Q.** With `CC(=O)Nc1nc2c(Oc3cc(-c4ccc(C(F)(F)F)cc4)ncn3)cccc2s1` [AMG 517] as the molecule, how does the “% Decrease from Baseline (mean ± S.E.M.) of Paw Withdrawal Threshold” value (from here on “% Decrease from Baseline”) ([1]; 1 h after administration) read?
**A.** 61 ± 2.3%

**Q.** What about the “Paw Withdrawal Threshold (g) (mean ± S.E.M.)” value (“Paw Withdrawal Threshold (g)” for short) ([1]; 1 h after administration) of the same molecule?
**A.** 94 ± 5.3 g

**Q.** And the “% Decrease from Baseline” value ([1]; 3 h after administration)?
**A.** 52 ± 4.3%

**Q.** What about the “Paw Withdrawal Threshold (g)” value ([1]; 3 h after administration) of the same molecule?
**A.** 115 ± 10.8 g

**Q.** And the “% Decrease from Baseline” value ([1]; 5 h after administration)?
**A.** 65 ± 2.9%

**Q.** What about the “Paw Withdrawal Threshold (g)” value ([1]; 5 h after administration) of the same molecule?
**A.** 86 ± 7.7 g

**Q.** What about the “Paw Withdrawal Threshold (g)” value [1, 4] of the same molecule?
**A.** 242 ± 6.0 g

**Q.** What about the “% Change from Baseline (mean ± S.E.M.) of Paw Withdrawal Latency” value (“% Change from Baseline” below) ([2]; 1 h after administration) of the same molecule?
**A.** −50.1 ± 25.49%

**Q.** What about the “Paw Withdrawal Latency (sec) (mean ± S.E.M.)” value (from here on “Paw Withdrawal Latency (sec)”) ([2]; 1 h after administration) of the same molecule?
**A.** 8.6 ± 0.91 s

**Q.** What about the “% Change from Baseline” value ([2]; 3 h after administration) of the same molecule?
**A.** −27.1 ± 16.54%

**Q.** And the “Paw Withdrawal Latency (sec)” value ([2]; 3 h after administration)?
**A.** 11.8 ± 0.66 s

**Q.** What about the “% Change from Baseline” value ([2]; 5 h after administration) of the same molecule?
**A.** −24.8 ± 15.95%

**Q.** And the “Paw Withdrawal Latency (sec)” value ([2]; 5 h after administration)?
**A.** 12.1 ± 0.60 s

**Q.** And the “Paw Withdrawal Latency (sec)” value [2, 4]?
**A.** 14.4 ± 1.35 s

**Q.** And the “% WL (mean ± S.E.M.), percentage of weight borne on the burn-injured left hind paw” value (“% WL (mean ± S.E.M.), percentage” below) ([3]; 1 h after administration)?
**A.** 39.2 ± 4.30 %

**Q.** What about the “% WL (mean ± S.E.M.), percentage” value ([3]; 3 h after administration) of the same molecule?
**A.** 43.1 ± 2.82%

**Q.** What about the “% WL (mean ± S.E.M.), percentage” value ([3]; 5 h after administration) of the same molecule?
**A.** 43.0 ± 3.37%

**Q.** And the “% WL (mean ± S.E.M.), percentage” value [3, 4]?
**A.** 49.4 ± 0.44%
